The experiment addresses PDE 4 (cytosolic fraction from human polymorphonuclear lymphocytes (PMNLs)). As to the kind of experiment: Inhibition of phosphodiesterase 4 (SPA assay, [3H]-cAMP substrate). Format: biochemical. To be noted: enzyme preparation from human PMNLs; 0.5 μM [3H]-cAMP; 37° C., 30 minutes. Here is the method: The PDE 4 activity is determined using enzyme preparations from human polymorphonuclear lymphocytes (PMNLs).
Human blood (buffy coats) was anticoagulated with citrate. The platelet-rich plasma in the supernatant is separated from the erythrocytes and leucocytes by centrifuging at 700×g for 20 minutes at room temperature (RT). The PMNLs for the PDE 4 determination are isolated by means of a subsequent dextran sedimentation followed by a gradient centrifugation using Ficoll-Paque. After the cells have been washed twice, the erythrocytes which are still present are lysed within 6 minutes by adding 10 ml of hypotonic buffer (155 mM NH4Cl, 10 mM NaHCO3, 0.1 mM EDTA, pH=7.4) at 4° C. The PMNLs, which are still intact, are washed a further two times with PBS and lysed by ultrasonication. The supernatant obtained after centrifuging at 48 000×g at 4° C. for one hour contains the cytosolic PDE 4 fraction and is used for the PDE 4 measurements.
The phosphodiesterase activity is measured using a modified Amersham Pharmacia Biotech method, i.e. an SPA (scintillation proximity assay) assay. The reaction mixtures contain buffer (50 mM tris-HCl (pH 7.4), 5 mM MgCl2, 100 μM cGMP), varying concentrations of the inhibitors, and the corresponding enzyme preparation. The reaction is started by adding the substrate, i.e. 0.5 μM [^3H]-cAMP. The final volume is 100 μl. Test substances are prepared as stock solutions in DMSO. The concentration of DMSO in the reaction mixture is 1% v/v. This DMSO concentration has no effect on PDE activity. After the reaction has been started by adding the substrate, the samples are incubated at 37° C. for 30 minutes. The reaction is stopped by adding a defined quantity of SPA beads and the samples are measured in a beta counter after one hour. The nonspecific enzyme activity (i.e. the blank) is determined in the presence of 100 μM rolipram and subtracted from the test values. The incubation mixtures for the PDE 4 assay contain 100 μM cGMP in order to inhibit any contamination of PDE 3 which may be present.

The record followed here is patent US7166637B2, “Hydroxyindoles, their use as inhibitors of phosphodiesterase 4, and processes for preparing them” (Elbion AG, priority 2002, dated 2007).

The structures appear in SMILES notation. pIC50: −log10 of the molar value.

Take `O=C(Nc1c(Cl)cncc1Cl)C(=O)c1cn(Cc2ccc(Cl)cc2)c2c(O)cccc12` [Compound 2, N-(3,5-dichloropyrdin-4-yl)-[1-(4-chlorobenzyl)-7-hydroxyindol-3-yl]glyoxylamide]: the pIC50 was 8.70.

In the case of `O=C(Nc1c(Cl)cncc1Cl)C(=O)c1cn(Cc2ccc(F)cc2)c2cccc(O)c12` [Compound 4], the pIC50 is 6.03.

In turn, `O=C(Nc1c(Cl)cncc1Cl)C(=O)c1cn(Cc2ccc(F)cc2)c2c(O)cccc12` [Compound 5] had a negative-log IC50 (pIC50) of 7.82.

For `O=C(Nc1c(Cl)cncc1Cl)C(=O)c1cn(Cc2ccccc2F)c2c(O)cccc12` [Compound 6], the pIC50 is 9.00.

`O=C(Nc1c(Cl)cncc1Cl)C(=O)c1cn(Cc2cccc([N+](=O)[O-])c2)c2c(O)cccc12` [Compound 7] had a pIC50 of 8.70. This pIC50 is 0.30 log units lower than that of the compound before.

In turn, `O=C(Nc1c(Cl)cncc1Cl)C(=O)c1cn(Cc2c(F)cccc2F)c2c(O)cccc12` [Compound 8] gave a pIC50 of 8.70.

`CC(C)Cn1cc(C(=O)C(=O)Nc2c(Cl)cncc2Cl)c2cccc(O)c21` [Compound 15] gave a pIC50 of 7.70.

In turn, `O=C(Nc1c(Cl)cncc1Cl)C(=O)c1cn(CC2CC2)c2c(O)cccc12` [Compound 16] showed a negative logarithm of the IC50 (pIC50) of 7.52.

Compound `O=C(Nc1c(Cl)cccc1Cl)C(=O)c1cn(Cc2ccc(F)cc2)c2c(O)cccc12` [Compound 17] showed a negative-log IC50 (pIC50) of 6.85.

Compound `O=C(Nc1c(Cl)cncc1Cl)C(=O)c1cn(Cc2ccc(O)cc2)c2c(O)cccc12` [Compound 22] gave a negative-log IC50 (pIC50) of 8.52. Compared with the last compound, the pIC50 is 1.67 log units higher.
